Like-named read-outs stand apart in the source and are kept apart here. Numbered stars: 1 amine (or outer) side, 2 acyl side, 3 side chain; on linkers, the order of the positions; unused ones are H or OH. Bridge positions count the residues as written; N and C are the ends. Square brackets hold non-standard residues; d marks the D form. Peptide text beside a SMILES is read from it. X1 = C=C(N[*:2])c1nc(-c2nc(-c3nc(C(=O)OC)cs3)ccc2C(=O)[*:1])cs1; NMePhe(4-NO2) = CN[C@@H](Cc1ccc([N+](=O)[O-])cc1)C(=O)O; LeuThz(4-CO) = CC(C)C[C@H](N[*:1])c1nc(C(=O)[*:2])cs1; ValThz = CC(C)[C@H](N[*:1])c1nc(C(=O)[*:2])cs1; Tic(7-OH) = O=C(O)[C@@H]1Cc2ccc(O)cc2CN1; X3 = C/C=C(\N[*:1])c1nc(C(=O)[*:2])cs1; Aad = N[C@@H](CCCC(=O)O)C(=O)O; Dhb = C/C=C(\N)C(=O)O; Dha = C=C(N)C(=O)O; Sar = CNCC(=O)O
Key:
[1] = Serum stability assay (LC/MS against internal standard); conditions: for half-life at 10 µM: human, human serum diluted in TBS, pH 7.6
Experimental: The ratio of areas under the peak for the intact analyte over the internal standard (EIC
chromatograms generated with m/z ± 3 cutoff values) were used to calculate the extent of
analyte degradation. Thiopeptide half-life values were obtained from non-linear regression
(scipy)15 of experimentally measured values to the standard first order kinetic decomposition
Serum stability assay. To a solution of analyte thiopeptide (13.3 µM) and the internal
standard peptide in TBS [5 µM; buffer: 50 mM Tris (pH 7.6), 150 mM NaCl] human serum
(0.33 volumes; Cosmo Bio) was added on ice. The solutions were mixed well and transferred to a 37 °C thermostat. At various timepoints, aliquots were withdrawn and quenched with 2.3 volumes of methanol containing 30 mM iodoacetamide. The mixtures were incubated on
ice for 15 min and then at 25 °C for 30 min. The samples were then centrifuged (15300 g for
5 min), and the supernatant (0.5 µL) was analyzed by LC/MS (section 2.5) using method 6
1 – 10 min 1 – 81% B, linear ramp
Data analysis was conducted as for the trypsin digestion assays.

TNIK [2] = biological target: T1, TNIK (Homo sapiens, UniProt Q9UKE5); assay: ADP-Glo kinase inhibition assay; type: biochemical; design: Biotinylated TNIK (kinase domain, amino acids 1-314;); biotin (biotinylated protein); purchased Carna Biosciences (Kobe, Japan)
Experimental: 2.9. Kinase inhibition assays with ADP-Glo
The ADP-Glo assay system was purchased from Promega. The kinase reaction buffer contained 50 mM Tris (pH 7.5), 10 mM MgCl2 and 0.01% (v/v) triton X-100. TNIK (1.25 nM) was incubated with various concentrations of analyte inhibitors in kinase reaction buffer at 25 °C for 10 min. After, the reactions were initiated by the addition of ATP and substrate […]
peptide (MSTtide, sequence: NH2-NKGYNTLRRKK-CONH2;ref 14 synthesized using the standard Fmoc SPPS techniques). The final mixtures containing 0.5 nM TNIK, 25 µM ATP, 15 µM MSTtide and variable concentration of the inhibitors were incubated at 25 °C for 30 min. The reactions were stopped by the addition of ADP -Glo reagent (1 volume), and the luminescent signal was developed following the manufacturer’s instructions. Luminesce was recorded on a Tecan M1000 PRO microplate reader (Tecan Group) with 1 s acquisition time and no signal attenuation. TNIK kinase activity was normalized to a no inhibitor control, and […]
values to the standard 4-parameter logistic curve model. […]

TNIK [3] = biological target: T1, TNIK; assay: Surface plasmon resonance, binding of thiopeptides to immobilized biotinylated TNIK (single-cycle, then multicycle kinetics); design: Biotinylated TNIK (kinase domain, amino acids 1-314;); biotin (biotinylated protein); purchased Carna Biosciences (Kobe, Japan); conditions: for KD / koff / kon / Kd: SPR kinetic data, binding to immobilized TNIK; for KD (binding affinity to TNIK): average from three multicycle kinetic experiments, 1:1 binding model, 25 °C; for Kd: read-out: KD
Experimental: 2.8. Surface plasmon resonance
In the initial experiment, binding affinities between the thiopeptides and TNIK were measured with a Biacore T200 instrument (GE Healthcare) at 25 °C. The assay buffer contained 50 mM Tris (pH 7.5), 150 mM NaCl, 10 mM MgCl2, 0.01% (v/v) tween-20 and 0.1% (v/v) DMSO. For wTP3, the assay buffer additionally contained ATP (f.c.: 1 mM).
Biotinylated TNIK was immobilized on a Biacore CAP chip (GE Healthcare) to a surface density of 950-1200 response units following the standard immobilization protocols provided by the manufacturer. The interaction sensorgrams were measured as single-cycle kinetics performed with five concentrations of the ligand sequentially flown over the chip at a flow rate of 15 μL/min allowing for 20 or 30 s association and 70 or 60 s for dissociation between the steps. The final dissociation step was allowed to proceed for 180 s. […]
was repeated in triplicate on a Biacore 8K instrument (GE Healthcare) using a multi cycle kinetics format. The experimental details were as above, except ATP was not added to the buffer for wTP3. Kinetic parameters and affinities of the interaction were determined assuming the standard 1:1 binding model using the Biacore software (GE Healthcare).
Reported KD values were calculated from the average measured association and dissociation rates (Table S5).

trypsin = system: T2, trypsin; assay: Stability to agarose-immobilized trypsin (LC/MS); type: in vitro ADME; conditions: isolated enzyme trypsin, pH 7.9
T2 construct: purchased Thermo Fisher
Experimental: 2.10. Thiopeptide metabolic stability experiments
Stability to trypsin. To a solution of the analyte thiopeptide (15 µM) and the internal standard peptide (5 µM NH2-PEG5-wstndwdtnd-PEG5-CONH2;ref 16 lower case encoding is for D-amino acids; synthesized using the standard Fmoc SPPS techniques) in digestion buffer [50 mM tris, 100 mM NaCl, 10 mM EDTA, pH 7.9] was added agarose -immobilized TPCK-treated trypsin (Thermo Fisher; 1 µL of resin slurry; 100 µL final reaction volume ) that was previously washed with digestion buffer thrice. The mixture was agitated at 22 °C, and at various timepoints (0.5, 1, 2, 4, and 6 h) aliquots were withdrawn and quenched with 14 volumes of water/acetonitrile mixture [30: 70 (v/v) water: acetonitr ile with 0.1% (v/v) TFA]. […]

[4] = Stability to glutathione (LC/MS); conditions: for half-life at 10 µM: 5 mM glutathione in HEPES buffer, pH 7.5; for metabolic stability, τ1/2, glutathione: 5 mM glutathione, pH 7.5, 37 °C
Experimental: Stability to glutathione. To a freshly prepared solution of glutathione (5 mM) in stability
buffer [50 mM HEPES (pH 7.5), 100 mM NaCl] was added a solution of analyte (1.5 mM
thiopeptide in DMSO; f. c.: 10 µM). The contents were mixed and transferred to a 37 °C
thermostat. At various time points (0.5, 1, 2, 4, 6, and 10 h) aliquots were withdrawn and
quenched with 2 volumes of methanol containing 30 mM iodoacetamide. The samples were
analyzed by LC/MS (0.3 µL; section 2.6) using method 3. Areas under the peak curve for all
thiopeptide-derived products in the sample (TIC chromatograms) were used to calculate
fractions of intact analyte. Thiopeptide half-life values were obtained from non-linear
regression (scipy)15 of experimentally measured values to the pseudo-first order
approximation for the reaction kinetics which can be used since [glutathione] >> [analyte].

[5] = system: HCT116 colon carcinoma cells; assay: Cell viability assay (Cell Counting Kit-8); conditions: 8 μM, 24 h, thiopeptide acetate salts
Experimental: HCT116 cells were cultured in McCoy's 5A (Modified) Medium supplemented with 1% (v/v)
penicillin-streptomycin and 10% (v/v) fetal bovine serum (all from Thermo Fisher) in a
All assays were conducted using thiopeptide acetate salts prepared as follows. Strong
anion resin (AG® 1–X8 acetate form, analytical grade, quaternary ammonium 10~50 mg)
was first washed three times with 1.6 N acetic acid and three times with 0.16 N acetic acid.
Then, a thiopeptide solution ( 0.5~3 mg, dissolved in water/ acetonitrile [1:1, v/v; ~1 ml]) was
added to the resin. After 2 h on a rotary shaker, the peptide-resin suspension was ﬁltered
and the liquid phase was recovered. The resin was washed twice with water/acetonitrile (1:1,
v/v; 0.5 ml/wash), and the solutions were combined.
Cell viability assays. HCT116 cells were grown to 40–50% confluency in 96-well plates
that the final DMSO concentration is 1% (v/v) for every sample. In the first experiment (Fig.
S44a), the cells were grown for 24 h, and the incubation time was further extended to 48 h
In both cases, the cell viability was
directly assayed with Cell Counting Kit-8 (Dojindo) following the manufacturer’s instructions
allowing 4 h to develop the signal. Absorbance at 450 nm was measured on a Tecan M1000
PRO microplate reader (Tecan Group), and live cell counts were normalized to the DMSO
control. All experiments were performed in triplicate, and in most cases, replicated at least
once to analogous outcomes.

[6] = system: agarose-immobilized TPCK-treated trypsin (Thermo Fisher); assay: agarose-immobilized TPCK-treated trypsin in digestion buffer [50 mM tris, 100 mM NaCl, 10 mM EDTA, pH 7.9]; conditions: 22 °C, up to 6 h
[7] = 0.5 nM TNIK, 25 µM ATP, 15 µM MSTtide, 4-parameter logistic fit, read-out: ADP-Glo IC50 against TNIK
[8] = 0.5 nM TNIK, 25 µM ATP, 15 µM MSTtide, 4-parameter logistic fit

T1 sequence (Q9UKE5 1-314): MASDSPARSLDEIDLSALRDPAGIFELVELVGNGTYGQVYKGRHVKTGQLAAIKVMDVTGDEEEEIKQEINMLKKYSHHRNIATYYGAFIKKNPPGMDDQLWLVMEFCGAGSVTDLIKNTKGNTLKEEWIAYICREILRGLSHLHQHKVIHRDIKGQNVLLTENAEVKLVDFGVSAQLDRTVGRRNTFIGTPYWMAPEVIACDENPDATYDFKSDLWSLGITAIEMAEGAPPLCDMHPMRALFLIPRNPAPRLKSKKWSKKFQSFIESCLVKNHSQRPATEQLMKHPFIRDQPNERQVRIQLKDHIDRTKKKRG

half-life at 10 µM [1] [h] | IC50 (TNIK [2]; [7]) [nM] | KD (TNIK [3]) | KD (binding affinity to TNIK) (TNIK [3]) | half-life at 15 µM (trypsin) [h] | Compound | not cleaved [6] | also measured
18.7 ± 1.5 | 24900 ± 3600 | weak/no binding; fitting not conducted | no measurable binding/inhibition | > 100 | C=C1NC(=O)CN(C)C(=O)/C(=C/C)NC(=O)C(=C)NC(=O)[C@@H]2Cc3ccc(O)cc3CN2C(=O)[C@@H]2CCCN2C(=O)[C@H](CC(C)C)NC(=O)[C@H](Cc2c[nH]c3ccccc23)NC(=O)[C@H](Cc2c[nH]c3ccccc23)NC(=O)c2ccc(-c3nc(C(=O)OC)cs3)nc2-c2csc(n2)C(=C)NC(=O)c2csc(n2)/C(=C/C)NC(=O)/C(=C/C)NC1=O [hTP4] (WWLP[Tic(7-OH)][Dha][Dhb][Sar][Dha][Dhb][X3]; linker N-C via X1) |  | 
3.6 ± 0.1 | 10700 ± 1100 | weak/no binding; fitting not conducted | no measurable binding/inhibition | 1.01 ± 0.07 | C=C1NC(=O)[C@H](Cc2ccc([N+](=O)[O-])cc2)N(C)C(=O)CN(C)C(=O)CNC(=O)[C@H](Cc2c[nH]c3ccccc23)NC(=O)c2ccc(-c3nc(C(=O)OC)cs3)nc2-c2csc(n2)C(=C)NC(=O)c2csc(n2)[C@H](CC(C)C)NC(=O)[C@H](CO)NC(=O)[C@H](CCCNC(=N)N)NC(=O)[C@H](CC(N)=O)NC(=O)CN(C)C(=O)[C@H](CC(C)C)NC(=O)[C@H](CC(N)=O)NC1=O [hTP6] (WG[Sar][NMePhe(4-NO2)][Dha]NL[Sar]NRS[LeuThz(4-CO)]; linker N-C via X1) |  | metabolic stability, τ1/2, serum ([1]; human serum, 37 °C, first-order decay fit): unstable
18.9 ± 1.5 | 2700 ± 200 |  |  | 1.2 ± 0.1 | C=C1NC(=O)[C@@H]2Cc3ccc(O)cc3CN2C(=O)[C@H](CCCNC(=N)N)NC(=O)[C@H](CC(C)C)NC(=O)[C@H](Cc2ccc([N+](=O)[O-])cc2)N(C)C(=O)[C@H](CC(N)=O)NC(=O)[C@H](CC(C)C)NC(=O)[C@H](CCCNC(=N)N)NC(=O)[C@H](CCCC(N)=O)NC(=O)[C@H](C)NC(=O)[C@H](Cc2c[nH]c3ccccc23)NC(=O)c2ccc(-c3nc(C(=O)OC)cs3)nc2-c2csc(n2)C(=C)NC(=O)CNC1=O [hTP13] (WA[Aad](NH2)RLN[NMePhe(4-NO2)]LR[Tic(7-OH)][Dha]G; linker N-C via X1) |  | half-life at 10 µM [4]: 1.9 ± 0.1 h; metabolic stability, τ1/2, glutathione [4]: less than 2 h; koff (TNIK [3]): 0.0533 s⁻¹; kon (TNIK [3]): 648000 M⁻¹ s⁻¹; Kd (TNIK [3]): 82 nM
17.2 ± 1.1 |  |  | single-digit | > 100 | C=C1NC(=O)[C@H](Cc2ccc([N+](=O)[O-])cc2)N(C)C(=O)[C@H]([C@@H](C)O)NC(=O)C(=C)NC(=O)C(=C)NC(=O)[C@@H]2Cc3ccc(O)cc3CN2C(=O)CN(C)C(=O)C(=C)NC(=O)CN(C)C(=O)[C@H](CCCC(N)=O)NC(=O)[C@H](Cc2c[nH]c3ccccc23)NC(=O)[C@H](Cc2c[nH]c3ccccc23)NC(=O)c2ccc(-c3nc(C(=O)OC)cs3)nc2-c2csc(n2)C(=C)NC(=O)CNC1=O [wTP3] (WW[Aad](NH2)[Sar][Dha][Sar][Tic(7-OH)][Dha][Dha]T[NMePhe(4-NO2)][Dha]G; linker N-C via X1) |  | half-life at 10 µM [4]: 20.6 ± 2 h; metabolic stability, τ1/2, glutathione [4]: 20.6 h; ADP-Glo IC50 against TNIK (TNIK [2]; [8]): no measurable binding/inhibition; cytotoxicity (cell viability) after 24 h incubation [5]: inactive; koff (TNIK [3]): 0.00579 s⁻¹; kon (TNIK [3]): 1.37e+06 M⁻¹ s⁻¹; Kd (TNIK [3]): 4.2 nM
14.3 ± 0.7 | 240 ± 30 |  |  | > 100 | C=C1NC(=O)[C@@H]2Cc3ccc(O)cc3CN2C(=O)CN(C)C(=O)/C(=C/C)NC(=O)CN(C)C(=O)[C@H](CCCC(N)=O)NC(=O)[C@H](Cc2c[nH]c3ccccc23)NC(=O)[C@H](Cc2c[nH]c3ccccc23)NC(=O)c2ccc(-c3nc(C(=O)OC)cs3)nc2-c2csc(n2)C(=C)NC(=O)CNC(=O)/C(=C/C)NC(=O)[C@H](Cc2ccc([N+](=O)[O-])cc2)N(C)C(=O)[C@H]([C@@H](C)O)NC(=O)C(=C)NC1=O [wTP4] (WW[Aad](NH2)[Sar][Dhb][Sar][Tic(7-OH)][Dha][Dha]T[NMePhe(4-NO2)][Dhb]G; linker N-C via X1) |  | ADP-Glo IC50 against TNIK (TNIK [2]; [8]): sub-μM; koff (TNIK [3]): 0.000432 s⁻¹; kon (TNIK [3]): 42500 M⁻¹ s⁻¹; Kd (TNIK [3]): 10.2 nM
34.9 ± 2.3 | 15200 ± 1500 | weak/no binding; fitting not conducted | no measurable binding/inhibition | > 100 | C=C1NC(=O)[C@H](CCCC(N)=O)NC(=O)[C@@H]2Cc3ccc(O)cc3CN2C(=O)[C@H](CC(N)=O)NC(=O)/C(=C/C)NC(=O)[C@H](Cc2ccc([N+](=O)[O-])cc2)N(C)C(=O)CN(C)C(=O)[C@H](C)NC(=O)[C@H](Cc2c[nH]c3ccccc23)NC(=O)c2ccc(-c3nc(C(=O)OC)cs3)nc2-c2csc(n2)C(=C)NC(=O)c2csc(n2)[C@H](C(C)C)NC(=O)C(=C)NC(=O)/C(=C/C)NC1=O [wTP8] (WA[Sar][NMePhe(4-NO2)][Dhb]N[Tic(7-OH)][Aad](NH2)[Dha][Dhb][Dha][ValThz]; linker N-C via X1) |  | 
 |  |  |  |  | AgfTNyCSTSVC | did not degrade (6 h); completely stable; τ1/2 >100 h | 
 |  |  |  |  | TNSfyNfgggTP | completely stable; τ1/2 >100 h | 
 |  |  |  |  | WCgSgySSTfSG | did not degrade (6 h); completely stable; τ1/2 >100 h | 
 |  |  |  |  | WCgTgySSTfTG | did not degrade (6 h); completely stable; τ1/2 >100 h | 
 |  |  |  |  | WLPySTgSTTC | did not degrade (6 h); τ1/2 > 100 h, no measurable degradation during the course of the experiment | 

Compound | half-life at 10 µM [1] [h] | IC50 (TNIK [2]; [7]) [nM] | KD (TNIK [3]) | KD (binding affinity to TNIK) (TNIK [3]) | half-life at 15 µM (trypsin) [h] | not cleaved [6] | also measured
C=C1NC(=O)C(=C)NC(=O)[C@H](CCCCN)NC(=O)[C@H](CC(C)C)NC(=O)[C@H]([C@@H](C)O)NC(=O)[C@H](CCCCN)NC(=O)[C@H](Cc2ccc(O)cc2)NC(=O)[C@H]([C@@H](C)CC)NC(=O)[C@H](Cc2ccccc2)NC(=O)CNC(=O)[C@H](Cc2c[nH]c3ccccc23)NC(=O)c2ccc(-c3nc(C(=O)OC)cs3)nc2-c2csc(n2)C(=C)NC(=O)CNC1=O [TP1, reference compound] (WGFIYKTLK[Dha][Dha]G; linker N-C via X1) | 2.3 ± 0.1 |  |  |  |  |  | 
C=C1NC(=O)[C@@H]2CCCN2C(=O)[C@H]([C@@H](C)O)NC(=O)CN(C)C(=O)CN(C)C(=O)CN(C)C(=O)[C@H](Cc2ccc([N+](=O)[O-])cc2)N(C)C(=O)[C@H](CC(N)=O)NC(=O)[C@@H]2Cc3ccc(O)cc3CN2C(=O)[C@H](Cc2ccc([N+](=O)[O-])cc2)N(C)C(=O)[C@H](CO)NC(=O)[C@H](CC(N)=O)NC(=O)[C@H]([C@@H](C)O)NC(=O)[C@H](Cc2c[nH]c3ccccc23)NC(=O)c2ccc(-c3nc(C(=O)OC)cs3)nc2-c2csc1n2 [wTP13] (WTNS[NMePhe(4-NO2)][Tic(7-OH)]N[NMePhe(4-NO2)][Sar][Sar][Sar]TP; linker N-C via X1) | 99.4 ± 13 |  | weak/no binding; fitting not conducted | no measurable binding/inhibition |  |  | IC50 (TNIK [2]): 9600 ± 700 nM; half-life at 15 µM (trypsin; agarose-immobilized trypsin, 22 °C, read-out: metabolic stability, τ1/2, trypsin): > 100 h

Reference: article PMC10979747 (Journal of the American Chemical Society, 2024)
